# According to patent US20200246465A1, “USE OF TRYPTOPHAN DERIVATIVES FOR PROTEIN FORMULATIONS” (Genentech, Inc., priority 2015, published 2020):
# Key:
# [1] = AAPH stress of proteins with or without NAT, site-specific Trp oxidation by LC-MS tryptic peptide mapping; assay type: physicochemical; conditions: Mab2 W53 and W106, Mab4 W52, Mab1 W103, Mab6 W103/104; 1 mM AAPH; NAT 0.05-1 mM
# Protocol: Proteins Mab1, Mab2, and Mab3/Mab4 were dialyzed into a sodium acetate buffer (20 mM sodium acetate pH 5.5) and Mab5/Mab6 was dialyzed into a histidine-based buffer (20 mM histidine hydrochloride pH 5.5). Protein solutions were diluted to a final concentration of 1 mg/mL protein in the corresponding buffer and 1 mM 2,2′-Azobis(2-amidinopropane) dihydrochloride (AAPH) was added. N-acetyl-Trp (NAT) was added from a concentrated stock solution to each protein solution at concentrations from 0 to 5 mM. Samples were incubated at 40° C. for 16 hours followed by quenching with methionine and buffer exchange to the initial dialysis buffer plus 100 mM sucrose.
# Site-specific modifications of AAPH-stressed samples of Mab2, Mab1, and Mab3/Mab4 were monitored using a microscale tryptic peptide digest followed by liquid chromatography-mass spectrometry (LC-MS) (Anderson, N. et al., Nov. 20, 2014, American Pharmaceutical Review). […]
# Peptide mapping of each digested sample was performed on a Waters Acquity H-Class UHPLC coupled to a Thermo Q Exactive Plus high resolution mass spectrometry system (HRMS). […] Column effluent was monitored at 214 nm. […] The oxidation level at each site was determined by extracted ion chromatography (EIC) using the Thermo XCalibur biopharmaceutical characterization software. […]
# [2] = Thermal stress of NAT in formulation buffer, RP-HPLC at 240 nm; assay type: physicochemical; conditions: elevated temperature (40° C., 5 months), His buffer, 1.0 mM NAT
# Protocol: Histidine and non-histidine buffers containing 1.0 mM NAT were aliquoted into sterile glass vials (5 ml/vial, 6 vials per buffer). Vials were stored in a dark box at the indicated temperatures during the stress and transferred to −70° C. for storage until analysis (timepoints taken monthly for five months). Initial time points for samples of each buffer solution were transferred immediately to −70° C. Prior to analysis, the samples were thawed and diluted with Milli-Q H2O to a final NAT concentration of 0.2 mM.
# NAT and NAT degradants were separated on an Agilent 1200 series HPLC or Waters H Class UPLC using an Agilent ZORBAX SB-C18 3.5 μm, 4.6×75 mm reverse phase column. Column temperature was held at 30±0.8° C. by a thermostat controller. The gradients used for HPLC and UPLC are listed in Tables 5 and 6, respectively (note: the shorter gradient on the UPLC was designed to accommodate earlier retention times and the column re-equilibration period was elongated due to the larger range of system pressure at a flow rate of 1.0 ml/min). NAT degradation products were detected at 240 nm. The standard bandwidth setting (8 nm for Agilent 1200 HPLC, 4.8 nm for Waters H-Class) was used for analysis on each instrument. The autosampler was maintained at 5±3° C. […]
# Total NAT degradation for each sample was calculated by comparing NAT peak area to the control sample for each stress model (Table 7). […]
smiles,measurement,setting,value
"CC(=O)N[C@@H](Cc1c[nH]c2ccccc12)C(=O)O [NAT, N-acetyl-tryptophan]",NAT protection from AAPH-induced oxidation of oxidation-prone tryptophan residues,[1],able to protect each tested residue from oxidation
same,% NAT degradation ± 1SD,[2],11.1 (n = 1) %
